Reference: patent EP0202903A2, “Control of ectoparasites” (priority 1985, dated 1986)

System: guinea pigs
Assay: Guinea pig systemic test: death of the treated guinea pig before blood sampling
Format: in vivo
Protocol: Adult guinea pigs were used in this test system. The compounds to be tested were dissolved in aqueous polyvinyl pyrrolidone or in polyethylene glycol 200, and an appropriate amount of the solution was administered by intraperitoneal injection. Various doses of the compound were used, as named in the tables below.
Blood was drawn from the guinea pigs at different times, shown in the tables below, and the samples of blood were centrifuged. Dental wicks were saturated with the blood serum, and were then exposed in Petri dishes to adult stable flies or adult house flies; blow fly larvae were exposed in test tubes. Various species were used in various tests. After 24 hours, the insects were examined, and the number of dead were counted.

[1] = 10 mg./kg. intraperitoneal, sampling at 6 hours
[2] = 10 mg./kg. intraperitoneal, sampling at 24 hours
[3] = 25 mg./kg. intraperitoneal, sampling at 6 hours
[4] = 100 mg./kg. intraperitoneal, sampling at 24 hours
[5] = 25 mg./kg. intraperitoneal, sampling at 2 hours
[6] = 25 mg./kg. intraperitoneal, sampling at 48 hours

Measured: Dead (guinea pig died before its blood was sampled)

O=C(CC(=O)C(F)(F)C(F)(F)C(F)(F)F)c1ccc(Cl)s1 [Example 1, 1-(5-Chlorothien-2-yl)-3-perfluoropropyl-1,3-propanedione]
Dead: 5 mg./kg. intraperitoneal, sampling at 24 hours | [1] | [2] | 10 mg./kg. intraperitoneal, sampling at 48 hours | 25 mg./kg. intraperitoneal, sampling at 4 hours | [3] | 30 mg./kg. intraperitoneal, sampling at 6 hours | 40 mg./kg. intraperitoneal, sampling at 6 hours | 50 mg./kg. intraperitoneal, sampling at 4 hours | 50 mg./kg. intraperitoneal, sampling at 6 hours | 50 mg./kg. intraperitoneal, sampling at 24 hours | [4]

O=C(CC(=O)C(F)(F)C(F)(F)C(F)(F)F)c1cc(Cl)sc1Cl [Example 3, 1-(2,5-Dichlorothien-3-yl)-3-perfluoropropyl-1,3-propanedione]
Dead: [2] | [3] | 25 mg./kg. intraperitoneal, sampling at 24 hours

O=C(CC(=O)C(F)(F)C(F)(F)C(F)(F)F)c1ccc([N+](=O)[O-])cc1.[Na] [Example 4, 1-(4-Nitrophenyl)-3-perfluoropropyl-1,3-propanedione, sodium salt]
Dead: [4]

O=C(CC(=O)C1(F)C(F)(F)C(F)(F)C(F)(F)C(F)(F)C1(F)F)c1ccc(Cl)s1 [Example 5, 1-(5-Chlorothien-2-yl)-3-perfluorocyclo-hexyl-1,3-propanedione]
Dead: 25 mg./kg. intraperitoneal, sampling at 5 hours

O=C(CC(=O)C(F)(F)C(F)(F)C(F)(F)F)c1cc(Cl)c(Cl)s1 [Example 7, l-(4,5-Dichlorothien-2-yl)-3-perfluoropropyl-1,3-propanedione]
Dead: [2]

O=C(CC(=O)C(F)(F)C(F)(F)C(F)(F)F)c1ccc(Cl)cc1 [Example 8, 1-(4-Chlorophenyl)-3-perfluoropropyl-1,3-propanedione]
Dead: 10 mg./kg. intraperitoneal, sampling at 5 hours | [5] | [6] | 50 mg./kg. intraperitoneal, sampling at 2 hours | 100 mg./kg. intraperitoneal, sampling at 2 hours

O=C(CC(=O)C(F)(F)C(F)(F)C(F)(F)F)c1cccc(C(F)(F)F)c1.[Na] [Example 12, 1-Perfluoropropyl-3-(3-trifluoromethylphenyl)-1,3-propanedione, sodium salt]
Dead: [3] | [6]

O=C(CC(=O)C(F)(F)C(F)(F)C(F)(F)F)c1ccc(C(F)(F)F)cc1.[Na] [Example 13, 1-Perfluoropropyl-3-(4-trifluoromethylphenyl)-1,3-propanedione, sodium salt]
Dead: [5]

O=C(CC(=O)C(F)(F)C(F)(F)C(F)(F)F)c1ccc(C(F)(F)F)cc1 [Example 14, 1-Perfluoropropyl-3-(4-trifluoromethylphenyl)-1,3-propanedione]
Dead: 5 mg./kg. intraperitoneal, sampling at 5 hours | 5 mg./kg. intraperitoneal, sampling at 48 hours | [1] | [3]
